# Values of other authors, collected in patent US20060135540A1, “PPAR active compounds” (priority 2004, published 2006).
# Experiments:
# PPARδ = target: T1, PPARδ (Homo sapiens, UniProt Q03181)
# T1 sequence (Q03181 1-441): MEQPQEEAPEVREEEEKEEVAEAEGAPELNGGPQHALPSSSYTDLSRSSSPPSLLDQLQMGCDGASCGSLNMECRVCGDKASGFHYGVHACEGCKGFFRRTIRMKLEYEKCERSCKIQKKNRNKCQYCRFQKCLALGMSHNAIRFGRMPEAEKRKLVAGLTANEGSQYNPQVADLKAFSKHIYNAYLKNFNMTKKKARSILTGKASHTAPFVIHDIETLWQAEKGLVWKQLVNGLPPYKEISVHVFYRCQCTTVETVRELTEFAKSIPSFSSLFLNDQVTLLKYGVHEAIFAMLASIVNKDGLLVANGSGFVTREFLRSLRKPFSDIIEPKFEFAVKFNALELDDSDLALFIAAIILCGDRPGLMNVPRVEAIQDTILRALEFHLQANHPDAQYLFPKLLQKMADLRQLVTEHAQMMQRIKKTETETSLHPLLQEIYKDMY
# murine PPARα = target: T2, murine PPARα (Mus musculus, UniProt P23204)
# T2 sequence (P23204 1-468): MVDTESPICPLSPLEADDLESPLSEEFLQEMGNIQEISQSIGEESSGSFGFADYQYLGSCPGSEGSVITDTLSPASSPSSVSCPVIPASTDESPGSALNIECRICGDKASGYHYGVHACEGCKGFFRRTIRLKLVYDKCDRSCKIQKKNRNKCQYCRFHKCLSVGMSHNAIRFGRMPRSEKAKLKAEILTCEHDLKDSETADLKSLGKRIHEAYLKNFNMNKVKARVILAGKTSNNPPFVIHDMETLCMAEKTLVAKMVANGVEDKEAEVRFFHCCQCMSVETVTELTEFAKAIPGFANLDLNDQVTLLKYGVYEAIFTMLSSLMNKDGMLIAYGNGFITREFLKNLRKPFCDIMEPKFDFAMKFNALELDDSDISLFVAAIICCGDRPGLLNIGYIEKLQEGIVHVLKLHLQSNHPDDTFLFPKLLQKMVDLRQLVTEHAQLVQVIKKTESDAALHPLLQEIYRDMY
# [1] = patients, large prospective trial
agonist selectivity for PPARδ over PPARγ (PPARδ),activity on murine PPARα (murine PPARα),SMILES,reduction in cardiovascular events or death [1]
approximately 30 fold,inactive,CCCc1c(OCCCOc2ccc(OCC(=O)O)cc2)ccc(C(C)=O)c1O [Compound L-165041],–
–,–,Cc1ccc(C)c(OCCCC(C)(C)C(=O)O)c1 [gemfibrozil],22%
